Data: patent US20240360157A1, “TYK2 INHIBITORS” (BIOGEN MA INC., priority 2021, published 2024)
Values belong to the compound of their own block, whether it stands above or below them.

Legend:
Format in all cases: biochemical
[1] = biological target: human JAK1 catalytic kinase (JH1) domain (Homo sapiens (Human), UniProt P23458); experiment: ADP-Glo Kinase Assay, recombinant JAK1 catalytic kinase (JH1) domain; conditions: recombinant JH1 domain 4 nM, 35 μM ATP, JAK3-342 peptide, mean, read-out: JAK1 biochem IC50 (nM) Mean
human JAK1 catalytic kinase (JH1) domain, sequence (P23458 875-1153): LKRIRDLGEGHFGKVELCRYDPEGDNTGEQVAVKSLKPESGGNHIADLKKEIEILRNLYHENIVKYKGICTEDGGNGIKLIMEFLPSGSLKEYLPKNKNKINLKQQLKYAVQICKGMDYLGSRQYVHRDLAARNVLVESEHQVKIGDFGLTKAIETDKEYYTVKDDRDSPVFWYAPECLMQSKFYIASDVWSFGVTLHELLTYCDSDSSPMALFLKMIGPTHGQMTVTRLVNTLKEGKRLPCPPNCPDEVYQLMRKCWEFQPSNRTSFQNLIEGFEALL
Outline: (§1)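 Luminescent ADP read-out after residual ATP depletion, 100 min reaction. Kinase domain concentrations were 4 nM (JAK1), 0.2 nM (JAK2), 0.3 nM (JAK3) and 2 nM (TYK2), each with 50 μM peptide. IC50 values came from 4-parameter logistic fits over 11 points, 3-fold steps, top 10 μM or 1 μM.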

[2] = biological target: human TYK2 catalytic kinase (JH1) domain (Homo sapiens (Human), UniProt P29597); experiment: ADP-Glo Kinase Assay, recombinant TYK2 catalytic kinase (JH1) domain; conditions: recombinant JH1 domain 2 nM, 10 μM ATP, JAK3-974 peptide, mean, read-out: TYK2 biochem IC50 (nM) Mean
human TYK2 catalytic kinase (JH1) domain, sequence (P29597 897-1176): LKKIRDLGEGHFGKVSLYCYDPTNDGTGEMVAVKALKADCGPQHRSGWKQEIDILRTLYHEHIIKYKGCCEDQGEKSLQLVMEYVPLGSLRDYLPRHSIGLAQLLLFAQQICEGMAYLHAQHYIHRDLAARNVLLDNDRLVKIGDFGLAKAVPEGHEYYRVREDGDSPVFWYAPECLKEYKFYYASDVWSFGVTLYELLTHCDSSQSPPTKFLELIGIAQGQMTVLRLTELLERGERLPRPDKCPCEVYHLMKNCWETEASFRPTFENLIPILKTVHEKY
Outline: as §1

[3] = biological target: human JAK2 catalytic kinase (JH1) domain (Homo sapiens (Human), UniProt O60674); experiment: ADP-Glo Kinase Assay, recombinant JAK2 catalytic kinase (JH1) domain; conditions: recombinant JH1 domain 0.2 nM, 15 μM ATP, JAK3-974 peptide, mean, read-out: JAK2 biochem IC50 (nM) Mean
human JAK2 catalytic kinase (JH1) domain, sequence (O60674 849-1124): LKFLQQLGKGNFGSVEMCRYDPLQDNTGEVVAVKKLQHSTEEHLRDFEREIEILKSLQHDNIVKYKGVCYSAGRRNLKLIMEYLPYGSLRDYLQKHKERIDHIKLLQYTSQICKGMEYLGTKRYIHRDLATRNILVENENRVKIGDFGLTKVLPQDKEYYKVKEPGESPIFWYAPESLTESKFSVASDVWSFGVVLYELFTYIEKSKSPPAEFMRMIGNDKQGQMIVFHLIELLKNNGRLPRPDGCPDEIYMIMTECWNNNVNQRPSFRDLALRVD
Outline: as §1

[4] = biological target: human JAK3 catalytic kinase (JH1) domain (Homo sapiens (Human), UniProt P52333); experiment: ADP-Glo Kinase Assay, recombinant JAK3 catalytic kinase (JH1) domain; conditions: recombinant JH1 domain 0.3 nM, 4 μM ATP, JAK3-974 peptide, mean, read-out: JAK3 biochem IC50 (nM) Mean
human JAK3 catalytic kinase (JH1) domain, sequence (P52333 822-1111): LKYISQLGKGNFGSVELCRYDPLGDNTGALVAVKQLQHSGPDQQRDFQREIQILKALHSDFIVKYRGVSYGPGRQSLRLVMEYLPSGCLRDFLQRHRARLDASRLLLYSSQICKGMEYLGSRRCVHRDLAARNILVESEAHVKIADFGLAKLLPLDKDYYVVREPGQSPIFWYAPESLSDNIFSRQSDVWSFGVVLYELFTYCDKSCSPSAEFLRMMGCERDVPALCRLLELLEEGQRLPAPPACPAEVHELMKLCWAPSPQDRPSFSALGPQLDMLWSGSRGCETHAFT
Outline: as §1

SMILES: O=C([C@@H]1CC1(F)F)N1C2CCC1CN(c1ncnc3[nH]c(-c4cnn(C(F)F)c4)cc13)C2 [Example 222, ((S)-2,2-difluorocyclopropyl)(3-(6-(1-(difluoromethyl)-1H-pyrazol-4-yl)-7H-pyrrolo[2,3-d]pyrimidin-4-yl)-3,8-diazabicyclo[3.2.1]octan-8-yl)methanone]
IC50 [1]: 132 nM
IC50 [2]: 5.7 nM
IC50 [3]: 128 nM
IC50 [4]: 999 nM

SMILES: O=C([C@@H]1C[C@H]1F)N1C2CCC1CN(c1ncnc3[nH]c(-c4ccnc(C(F)(F)F)c4)cc13)C2 [Example 223, ((1S,2R)-2-fluorocyclopropyl)(3-(6-(2-(trifluoromethyl)pyridin-4-yl)-7H-pyrrolo[2,3-d]pyrimidin-4-yl)-3,8-diazabicyclo[3.2.1]octan-8-yl)methanone]
IC50 [1]: 308 nM
IC50 [2]: 23.9 nM
IC50 [3]: 352 nM
IC50 [4]: 1620 nM

SMILES: Cc1ccc(-c2cc3c(N4CC5CCC(C4)N5C(=O)[C@@H]4C[C@H]4F)ncnc3[nH]2)cn1 [Example 224, ((1S,2R)-2-fluorocyclopropyl)(3-(6-(6-methylpyridin-3-yl)-7H-pyrrolo[2,3-d]pyrimidin-4-yl)-3,8-diazabicyclo[3.2.1]octan-8-yl)methanone]
IC50 [1]: 234 nM
IC50 [2]: 19.2 nM
IC50 [3]: 462 nM
IC50 [4]: 1100 nM

SMILES: COc1ccc(-c2cc3c(N4CC5CCC(C4)N5C(=O)[C@@H]4C[C@H]4F)ncnc3[nH]2)cn1 [Example 225, ((1S,2R)-2-fluorocyclopropyl)(3-(6-(6-methoxypyridin-3-yl)-7H-pyrrolo[2,3-d]pyrimidin-4-yl)-3,8-diazabicyclo[3.2.1]octan-8-yl)methanone]
IC50 [1]: 245 nM
IC50 [2]: 21.3 nM
IC50 [3]: 357 nM
IC50 [4]: 735 nM

SMILES: CN(C)c1ccc(-c2cc3c(N4CC5CCC(C4)N5C(=O)[C@@H]4C[C@H]4F)ncnc3[nH]2)cn1 [Example 226, (3-(6-(6-(dimethylamino)pyridin-3-yl)-7H-pyrrolo[2,3-d]pyrimidin-4-yl)-3,8-diazabicyclo[3.2.1]octan-8-yl)((1S,2R)-2-fluorocyclopropyl)methanone]
IC50 [1]: 116 nM
IC50 [2]: 14.9 nM
IC50 [3]: 244 nM
IC50 [4]: 468 nM

SMILES: N#Cc1ccc(-c2cc3c(N4CC5CCC(C4)N5C(=O)[C@@H]4C[C@H]4F)ncnc3[nH]2)cn1 [Example 227, 5-(4-(8-((1S,2R)-2-fluorocyclopropane-1-carbonyl)-3,8-diazabicyclo[3.2.1]octan-3-yl)-7H-pyrrolo[2,3-d]pyrimidin-6-yl)picolinonitrile]
IC50 [1]: 268 nM
IC50 [2]: 31.6 nM
IC50 [3]: 418 nM
IC50 [4]: 1590 nM

SMILES: O=C([C@@H]1C[C@H]1F)N1C2CCC1CN(c1ncnc3[nH]c(-c4ccc(C(F)(F)F)nc4)cc13)C2 [Example 228, ((1S,2R)-2-fluorocyclopropyl)(3-(6-(6-(trifluoromethyl)pyridin-3-yl)-7H-pyrrolo[2,3-d]pyrimidin-4-yl)-3,8-diazabicyclo[3.2.1]octan-8-yl)methanone]
IC50 [1]: 315 nM
IC50 [2]: 41.2 nM
IC50 [3]: 813 nM
IC50 [4]: 7440 nM

SMILES: O=C(C1C[C@H]1F)N1C2CCC1CN(c1ncnc3[nH]c(-c4cncc(F)c4)cc13)C2 (some centres unmarked) [Example 229]
IC50 [1]: 1240 nM
IC50 [2]: 122 nM
IC50 [3]: 1740 nM
IC50 [4]: 10000 nM

SMILES: Cc1cc(-c2cc3c(N4CC5CCC(C4)N5C(=O)[C@@H]4C[C@H]4F)ncnc3[nH]2)ccn1 [Example 230, ((1S,2R)-2-fluorocyclopropyl)(3-(6-(2-methylpyridin-4-yl)-7H-pyrrolo[2,3-d]pyrimidin-4-yl)-3,8-diazabicyclo[3.2.1]octan-8-yl)methanone]
IC50 [1]: 91 nM
IC50 [2]: 8.2 nM
IC50 [3]: 218 nM
IC50 [4]: 742 nM

SMILES: COc1cc(-c2cc3c(N4CC5CCC(C4)N5C(=O)[C@@H]4C[C@H]4F)ncnc3[nH]2)ccn1 [Example 231, ((1S,2R)-2-fluorocyclopropyl)(3-(6-(2-methoxypyridin-4-yl)-7H-pyrrolo[2,3-d]pyrimidin-4-yl)-3,8-diazabicyclo[3.2.1]octan-8-yl)methanone]
IC50 [1]: 115 nM
IC50 [2]: 12.4 nM
IC50 [3]: 307 nM
IC50 [4]: 877 nM

SMILES: O=C(C1C[C@H]1F)N1C2CCC1CN(c1ncnc3[nH]c(-c4ccncc4F)cc13)C2 (some centres unmarked) [Example 232]
IC50 [1]: 226 nM
IC50 [2]: 13.1 nM
IC50 [3]: 322 nM
IC50 [4]: 848 nM

SMILES: N#Cc1cc(-c2cc3c(N4CC5CCC(C4)N5C(=O)[C@@H]4C[C@H]4F)ncnc3[nH]2)ccn1 [Example 233, 4-(4-(8-((1S,2R)-2-fluorocyclopropane-1-carbonyl)-3,8-diazabicyclo[3.2.1]octan-3-yl)-7H-pyrrolo[2,3-d]pyrimidin-6-yl)picolinonitrile]
IC50 [1]: 174 nM
IC50 [2]: 15.4 nM
IC50 [3]: 248 nM
IC50 [4]: 3240 nM

SMILES: O=C([C@@H]1C[C@H]1F)N1C2CCC1CN(c1ncnc3[nH]c(-c4ccnnc4)cc13)C2 [Example 234, ((1S,2R)-2-fluorocyclopropyl)(3-(6-(pyridazin-4-yl)-7H-pyrrolo[2,3-d]pyrimidin-4-yl)-3,8-diazabicyclo[3.2.1]octan-8-yl)methanone]
IC50 [1]: 388 nM
IC50 [2]: 28.6 nM
IC50 [3]: 598 nM
IC50 [4]: 3200 nM

SMILES: Cn1cc(-c2cc3c(N4CC5CCC(C4)N5C(=O)[C@@H]4C[C@H]4F)ncnc3[nH]2)cn1 [Example 235, ((1S,2R)-2-fluorocyclopropyl)(3-(6-(1-methyl-1H-pyrazol-4-yl)-7H-pyrrolo[2,3-d]pyrimidin-4-yl)-3,8-diazabicyclo[3.2.1]octan-8-yl)methanone]
IC50 [1]: 117 nM
IC50 [2]: 5.3 nM
IC50 [3]: 106 nM
IC50 [4]: 338 nM

IC50 [1]: 145 nM
IC50 [2]: 3.8 nM
IC50 [3]: 99 nM
IC50 [4]: 253 nM
SMILES: Cn1cc(-c2cc3c(N4CC5CCC(C4)N5C(=O)C4CC4)ccnc3[nH]2)cn1 [Example 236, cyclopropyl(3-(2-(1-methyl-1H-pyrazol-4-yl)-1H-pyrrolo[2,3-b]pyridin-4-yl)-3,8-diazabicyclo[3.2.1]octan-8-yl)methanone]

SMILES: O=C(C1CC1)N1C2CCC1CN(c1ccnc3[nH]c(-c4cnn(C(F)F)c4)cc13)C2 [Example 237, cyclopropyl(3-(2-(1-(difluoromethyl)-1H-pyrazol-4-yl)-1H-pyrrolo[2,3-b]pyridin-4-yl)-3,8-diazabicyclo[3.2.1]octan-8-yl)methanone]
IC50 [1]: 50 nM
IC50 [2]: 1.1 nM
IC50 [3]: 39 nM
IC50 [4]: 183 nM

SMILES: Cn1cc(-c2cc3c(N4CC5CCC(C4)N5C(=O)[C@@H]4C[C@H]4F)ccnc3[nH]2)cn1 [Example 238, ((1S,2R)-2-fluorocyclopropyl)(3-(2-(1-methyl-1H-pyrazol-4-yl)-1H-pyrrolo[2,3-b]pyridin-4-yl)-3,8-diazabicyclo[3.2.1]octan-8-yl)methanone]
IC50 [1]: 10 nM
IC50 [2]: 0.1 nM
IC50 [3]: 6 nM
IC50 [4]: 61 nM

SMILES: Cn1cc(-c2cc3c(N4CC5CCC(C4)N5C(=O)C4(F)CC4)ccnc3[nH]2)cn1 [Example 240, (1-fluorocyclopropyl)(3-(2-(1-methyl-1H-pyrazol-4-yl)-1H-pyrrolo[2,3-b]pyridin-4-yl)-3,8-diazabicyclo[3.2.1]octan-8-yl)methanone]
IC50 [1]: 44 nM
IC50 [2]: 4.4 nM
IC50 [3]: 42 nM
IC50 [4]: 35 nM

SMILES: Cn1ncc(-c2cc3c(N4CC5CCC(C4)N5C(=O)C4(F)CC4)ccnc3[nH]2)c1F [Example 242, (3-(2-(5-fluoro-1-methyl-1H-pyrazol-4-yl)-1H-pyrrolo[2,3-b]pyridin-4-yl)-3,8-diazabicyclo[3.2.1]octan-8-yl)(1-fluorocyclopropyl)methanone]
IC50 [1]: 362 nM
IC50 [2]: 113 nM
IC50 [3]: 690 nM
IC50 [4]: 296 nM

SMILES: Cn1cc(-c2cc3c(N4CC5CCC(C4)N5C(=O)C4(F)CC4)ccnc3[nH]2)c(F)n1 [Example 243, (3-(2-(3-fluoro-1-methyl-1H-pyrazol-4-yl)-1H-pyrrolo[2,3-b]pyridin-4-yl)-3,8-diazabicyclo[3.2.1]octan-8-yl)(1-fluorocyclopropyl)methanone]
IC50 [1]: 79 nM
IC50 [2]: 2.8 nM
IC50 [3]: 26 nM
IC50 [4]: 27 nM

SMILES: Cn1cc(-c2cc3c(N4CC5CCC(C4)N5C(=O)[C@@H]4C[C@H]4F)ccnc3[nH]2)c(F)n1 [Example 244, (3-(2-(3-fluoro-1-methyl-1H-pyrazol-4-yl)-1H-pyrrolo[2,3-b]pyridin-4-yl)-3,8-diazabicyclo[3.2.1]octan-8-yl)((1S,2R)-2-fluorocyclopropyl)methanone]
IC50 [1]: 18 nM
IC50 [2]: 0.2 nM
IC50 [3]: 4 nM
IC50 [4]: 73 nM

SMILES: COc1cc(-c2cc3c(N4CC5CCC(C4)N5C(=O)[C@@H]4C[C@H]4F)ccnc3[nH]2)ccn1 [Example 245, ((1S,2R)-2-fluorocyclopropyl)(3-(2-(2-methoxypyridin-4-yl)-1H-pyrrolo[2,3-b]pyridin-4-yl)-3,8-diazabicyclo[3.2.1]octan-8-yl)methanone]
IC50 [1]: 7 nM
IC50 [2]: 0.4 nM
IC50 [3]: 11 nM
IC50 [4]: 115 nM

SMILES: COc1nccc(-c2cc3c(N4CC5CCC(C4)N5C(=O)[C@@H]4C[C@H]4F)ccnc3[nH]2)c1F [Example 247, ((1S,2R)-2-fluorocyclopropyl)(3-(2-(3-fluoro-2-methoxypyridin-4-yl)-1H-pyrrolo[2,3-b]pyridin-4-yl)-3,8-diazabicyclo[3.2.1]octan-8-yl)methanone]
IC50 [1]: 40 nM
IC50 [2]: 1.4 nM
IC50 [3]: 18 nM
IC50 [4]: 168 nM
